The target of test [1] is T1, ADAMTS4 (Homo sapiens, UniProt O75173).
T1 construct: This is consistent with the recombinant proteins, we used in the screening process; purchased BioTeZ Berlin-Buch GmbH 30 400 102
T1 sequence (O75173 213-685): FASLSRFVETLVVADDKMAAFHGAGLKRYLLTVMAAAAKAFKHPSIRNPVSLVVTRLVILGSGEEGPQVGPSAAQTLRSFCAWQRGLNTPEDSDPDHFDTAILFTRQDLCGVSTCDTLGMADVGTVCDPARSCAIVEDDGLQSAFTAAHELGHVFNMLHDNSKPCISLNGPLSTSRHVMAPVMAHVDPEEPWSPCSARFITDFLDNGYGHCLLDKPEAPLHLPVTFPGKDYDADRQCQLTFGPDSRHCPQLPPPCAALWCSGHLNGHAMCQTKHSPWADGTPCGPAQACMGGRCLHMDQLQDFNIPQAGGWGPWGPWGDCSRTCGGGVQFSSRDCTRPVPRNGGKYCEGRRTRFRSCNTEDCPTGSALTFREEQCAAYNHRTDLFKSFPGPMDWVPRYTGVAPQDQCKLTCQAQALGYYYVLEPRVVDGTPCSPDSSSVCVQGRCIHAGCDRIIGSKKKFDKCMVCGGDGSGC
The test can be described thus: MST trace (MST points at 2.5 seconds) of peptides without fluorescence change. The class given is binding. The note with it: high MST power. How it is done:
Microscale thermophoresis (MST) was performed on a Monolith Pico (NanoTemper, Munich, Germany). The Cy5-labeled peptides were diluted into the MST buffer (150 mM NaCl, 50 mM TRIS-HCl, 5 mM CaCl2, and Tween-20) to reach a dilution of 6 nM. ADAMTS4, ADAMTS5, and ADAMTS1 were directly used with the supplied concentration. For ADAMTS4, the starting concentration was 4.96 µM, while for ADAMTS1 it was 4.88 µM and for ADAMTS5 it was 2.46 µM. Since we saw a loss of binding after centrifugation, the use of protein concentrators were inappropriate. 20 µl of the protein solutions were transferred into a PCR tube. 10 µl of this first vial was transferred into a second vial and mixed by pipetting with 10 µl of the MST buffer. […] The capillaries were transferred into the Monolith tray and measured with 10% excitation power on the pico-red excitation on high MST power at 25 °C. […] We detected a ligand-dependent fluorescence change for some of the systems. We checked for ADAMTS4 and the ADAMTS4-specific-Cy5-labeled probe via a saturation test for specifying the ligand-dependent fluorescence change. […] The samples were heated at 95 °C for 5 min and measured in the MST. The fluorescence difference between the concentrations was afterward at the same level. Each measurement was repeated three times independently and the binding constant was calculated by merging all three measurements. […]

Test [2] addresses T1, ADAMTS4. Description: MST instrument, ligand-dependent fluorescence change, Cy5-labeled peptides vs ADAMTS4 (incl. alanine scan). It counts as binding. The note with it: for binding to ADAMTS4 (ligand-dependent fluorescence change), in words: Cy5-labeled peptide 3 nM, 25 °C, n = 3. How it is done: Microscale thermophoresis (MST) was performed on a Monolith Pico (NanoTemper, Munich, Germany). The Cy5-labeled peptides were diluted into the MST buffer (150 mM NaCl, 50 mM TRIS-HCl, 5 mM CaCl2, and Tween-20) to reach a dilution of 6 nM. ADAMTS4, ADAMTS5, and ADAMTS1 were directly used with the supplied concentration. For ADAMTS4, the starting concentration was 4.96 µM, while for ADAMTS1 it was 4.88 µM and for ADAMTS5 it was 2.46 µM. […] 20 µl of the protein solutions were transferred into a PCR tube. 10 µl of this first vial was transferred into a second vial and mixed by pipetting with 10 µl of the MST buffer. The dilution series was continued 14 times. From tube 16, 10 µl were removed. Into all 16 tubes, 10 µl of the respective peptide solution were added and mixed by pipetting. The samples were incubated for 20 min and subsequently transferred to premium capillaries (NanoTemper, Munich, Germany). The capillaries were transferred into the Monolith tray and measured with 10% excitation power on the pico-red excitation on high MST power at 25 °C. Analysis was performed with MO.Affinity Analysis v3.0.1 (NanoTemper, Munich, Germany) and Origin 2022 (OriginLab Corporation, Northampton, MA). […] We checked for ADAMTS4 and the ADAMTS4-specific-Cy5-labeled probe via a saturation test for specifying the ligand-dependent fluorescence change. Therefore, the three highest ligand concentrations and the three lowest ligand concentrations of the measurement were used and centrifuged for 15 min at 16060 x g at 20 °C. Of each concentration, 7 µl were picked and mixed with 7 µl of a 10 M urea solution each. The samples were heated at 95 °C for 5 min and measured in the MST. […] Each measurement was repeated three times independently and the binding constant was calculated by merging all three measurements. […] The data were normalized using MO Affinity Analysis v3.0.1 and the fraction bound [−] was shown. […] Therefore, the percentage variance of the values to the average was plotted.
All measurements were performed with 10% LED power, high MST power and at 25 °C. The ligand dependent fluorescence change was used for determining the binding. […] The concentrations of the peptide were kept constant (3 nM in the measurement), while the proteins were diluted in the same manner as for ADAMTS4. […] The Cy5-labeled peptides (3 nM in the measurement) were kept constant, while ADAMTS4 was diluted in the same manner for each peptide (n=3 biologically independent measurements for each peptide; the data are presented as mean values ± SD). […] MST: microscale thermophoresis; nM: nanomolar; His: L-histidine; LED: light-emitting diode; n/a: not available; KD: binding constant.

In test [3] the target is T2, ADAMTS4 in the aortic wall of ApoE−/− mice (Mus musculus, UniProt Q8BNJ2).
T2 construct: from tissue
T2 sequence (Q8BNJ2 209-833): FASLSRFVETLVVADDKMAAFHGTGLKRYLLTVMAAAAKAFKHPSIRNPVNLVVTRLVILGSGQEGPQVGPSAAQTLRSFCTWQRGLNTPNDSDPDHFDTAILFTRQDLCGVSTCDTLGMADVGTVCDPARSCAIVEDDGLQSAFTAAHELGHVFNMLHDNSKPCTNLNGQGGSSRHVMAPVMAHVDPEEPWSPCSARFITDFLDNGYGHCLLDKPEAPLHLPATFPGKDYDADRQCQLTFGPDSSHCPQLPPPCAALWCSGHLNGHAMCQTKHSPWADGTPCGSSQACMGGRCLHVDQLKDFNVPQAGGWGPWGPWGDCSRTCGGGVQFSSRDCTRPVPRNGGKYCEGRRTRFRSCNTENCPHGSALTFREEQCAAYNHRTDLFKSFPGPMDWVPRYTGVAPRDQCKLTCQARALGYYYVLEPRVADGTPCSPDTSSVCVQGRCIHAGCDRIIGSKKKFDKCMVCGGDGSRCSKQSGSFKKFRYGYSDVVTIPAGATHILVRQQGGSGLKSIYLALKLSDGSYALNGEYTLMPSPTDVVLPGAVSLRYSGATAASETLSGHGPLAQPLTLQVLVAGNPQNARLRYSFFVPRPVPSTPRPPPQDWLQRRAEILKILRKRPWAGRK
The test can be described thus: In vivo MRI with negative control probe and ADAMTS4-specific probe. The note with it: for CNR post administration, individual animals: d1 = negative control probe, d2 = ADAMTS4-specific probe, 0.13 mmol/kg. The protocol: In vivo MR imaging was performed in 6 ApoE^−/− mice (n = 6): three mice (n = 3) received AngII through the osmotic minipumps, three mice (n = 3) received saline, serving as the control group. MR imaging was performed 4 weeks after minipump implantation. On day 1, a native MR scan was followed by the intravenous injection of the negative control peptide (0.13 mmol/kg) and a subsequent MR scan. 24 h later, mice were imaged prior to and following the intravenous administration of the ADAMTS4-specific probe (0.13 mmol/kg).
Analysis of resulting MR images was performed using OsiriX (version 7.1, OsiriX Foundation, Bernex, Switzerland). All morphometric measurements were conducted on high-resolution MRI images. In order to assess the signal intensities, regions of interest (ROIs) were measured as areas of signal enhancement, which were co-localized with areas of aneurysmal-aortic tissue. For these areas, the CNR was calculated using the following formula: CNR = (Combined vessel-wall and aneurysmal-aortic-tissue-signal − blood-signal)/standard-deviation-signal (noise). The signal of noise was defined as the standard deviation in pixel intensity from an ROI placed in the background air anterior to the aorta.

The target in test [4] is ADAMTS4-specific probe, Cy5-labeled (cyclic peptide Cys*-Ser-Arg-Arg-Gly-Cys*-Ser with peptide linker). Description: MST; Monolith Pico; read-out is the ligand-dependent fluorescence change, not the thermophoresis; Cy5-labeled peptide constant (6 nM solution), protein in a 16-step 1:1 dilution series; 150 mM NaCl, 50 mM TRIS-HCl, 5 mM CaCl2, Tween-20; 25 °C.
Test [5] has as its target ADAMTS4-specific peptide with the glycine exchanged for alanine (alanine scan peptide), Cy5-labeled. The description is as above.

Several values for one entry are separate records, joined by “and”; a condition that tells them apart may be missing. Equal values may be shown once. Entries after “also recorded” stand apart in the source; their conditions may differ. Where a SMILES comes first, the peptide text is derived from it. Bridges are numbered along the chain shown (N, C = ends). The star is where a group is joined. Cy5(nonsulfonated) = CN1C(=CC=CC=CC2=[N+](CCCCCC(=O)*)c3ccccc3C2(C)C)C(C)(C)c2ccccc21

The record followed here is article PMC9126943, “ADAMTS4-specific MR probe to assess aortic aneurysms in vivo using synthetic peptide libraries” (Nature Communications, 2022).

Turning to “Cys*-Phe-His-Pro-Tyr-Cys*-Ser (disulfide) [negative control peptide]”, the “binding in the MST trace” value on ADAMTS4 [1] is “no binding occurs”. The “binding to ADAMTS4 (ligand-dependent fluorescence change), in words” value on ADAMTS4 [2] is on record as “could not find binding; also recorded: no fluorescence change was detectable; also recorded: did not show any binding”.
Take “Cys*-Phe-His-Pro-Tyr-Cys*-linker (DOTA-Gd) (disulfide) [negative control probe, Cys*-Phe-His-Pro-Tyr-Cys*-linker (DOTA-Gd), similar size to the ADAMTS4-specific probe]”: the “increase in MR signal / CNR in the aortic wall, in words” value in test [3] (0.13 mmol/kg i.v., 4 weeks after minipump implantation, n = 6) is reported as “no significant increase; also recorded: significantly lower increase”. Also, the “CNR post administration, individual animals” value is 7.71 and 5.8 and 6.78 in test [3] (AAA (AngII) mice); 4.54 and 4.4 and 5.52 in test [3] (control (c, saline) mice).
In the case of `C[C@@H]1NC(=O)[C@H](CCCNC(=N)N)NC(=O)[C@H](CCCNC(=N)N)NC(=O)[C@H](CO)NC(=O)[C@@H](N)CSSC[C@@H](C(=O)N[C@@H](CO)C(=O)NCC(=O)NCC(=O)N[C@@H](CO)C(=O)NCC(=O)NCC(=O)N[C@@H](CCCCNC(=O)CCCCCN2C(=CC=CC=CC3=[N+](C)c4ccccc4C3(C)C)C(C)(C)c3ccccc32)C(=O)NCC(N)=O)NC1=O` [ADAMTS4-specific probe-Gly] (H-CSRRACSGGSGGK(Cy5(nonsulfonated))G-NH2; disulfide 1-6; N-terminus and C-terminus assumed), the “binding to ADAMTS4 (ligand-dependent fluorescence change), in words” value at ADAMTS4 [2] is recorded as “decrease the binding; also recorded: a ligand dependent fluorescence change occurs”. The “decrease in the binding affinity versus the parent peptide” value at ADAMTS4 [2] (alanine scan) is on record as “around ten times”.

B1: ADAMTS4 (A Disintegrin And Metalloproteinase with ThromboSpondin motifs 4), recombinant human (enzyme)
chain: T1 sequence (O75173 213-685)
For B1, the Kd is 51 nM in test [4] and 609 nM in test [5].

One may read the Kd as the free concentration of one partner at which half of the binding sites on the other are occupied at equilibrium, for simple one-to-one binding.
